From patent US20260007717A1, “ANTIMICROBIAL PEPTIDE COMPOUNDS AND METHODS OF USE” (priority 2022, published 2026)
Converted amounts (≈) assume the structure as drawn. Read-outs that look alike come from different tables or passages of the source. Positions of bridges follow the written chain, without caps; N, C: chain ends. Non-standard residues stand in square brackets, D forms with d. Residues, ends and D or L forms follow the SMILES beside them. *: point of attachment. Picolinoyl = O=C(c1ccccn1)*; Aib = CC(C)(N)C(=O)O

Tests used:
[1] = tested on: L. salivarius; format: cell-based
Description: (§1) Briefly, P. gingivalis is grown under anaerobic conditions to mid-log phase as per Dominy et al. […] The microtiter plate method outlined by Jansen (ibid) was used to measure MICs. Compounds and bacteria are added to wells of a microtiter plate and grown anaerobically (P. gingivalis) or with CO2 (L. salivarius) for 24 to 72 hours. Growth is measured with light scattering at 592 nm on a plate reader and absorbance plotted against μg/ml of drug in each well.

[2] = tested on: P. gingivalis; format: cell-based
Description: as §1

[3] = tested on: E. coli; format: cell-based
[4] = tested on: A. baumannii; details: cited from earlier work
[5] = tested on: A. baumanii YQ4; assay: Induction of resistance through serial passage; details: after 55 passages at sub-MIC
Description: The initial concentration of the tested compounds was set up as 1/32×MIC and doubled every 10 passages. The 1 ml of bacterial culture was stored in 10% sterile glycerol at −80° C. every 5 passages. The MIC value of collected cultures and original strains were measured through the micro-dilution method.

[6] = tested on: A. baumannii YQ4; assay: ATP leakage assay; format: cell-based, Acinetobacter baumannii; details: 1×MIC, 30 min
Description: ATP leakage assay was performed using the Enhanced ATP Assay Kit of Beyotime (S0027) according to the manufacturer's manual. Briefly, the log-phase culture of A. baumannii YQ4 was prepared, washed and suspended in PBS as above. This suspension was exposed to 16 μg/ml COG1410, 16 μg/ml polymyxin B and 32 μg/ml tigecycline, respectively and incubated at 37° C. for 30 min. The supernatant was harvested and used for measurement of ATP levels. 100 μl of supernatant was mixed with 100 μl working solution and the chemiluminescence was measured by Biotek Synergy H1 plate reader. Untreated sample was set as negative control. The experiments were performed in triplicate.

[7] = tested on: PDR A. baumannii YQ4; assay: Dynamic time-kill assay in PBS; details: 30 min
Description: For dynamic time-kill assay, the overnight culture of A. baumannii YQ4 was transferred to fresh broth with initial OD600 0.01 and grown to the logarithmic phase. 1 ml culture was harvested, washed twice with 1× phosphate-buffered saline (PBS, pH7.4), containing 8 mM NaH2PO4, 2 mM KH2PO4, 2.6 mM KCl, 136 mM NaCl), and finally suspended in 1 ml PBS with OD600 0.5, which approximately corresponds to 1×10^8 CFU/ml. […] 100 μl aliquot was respectively taken at 0, 5, 10 and 30 min, serially diluted in PBS and plated on LB agar. The CFUs were counted after incubation at 37° C. for 18 h. […] Three independent experiments were performed.

[8] = tested on: pan-drug resistant (PDR) Acinetobacter baumannii YQ4; details: A. baumannii YQ4, LB broth
[9] = tested on: A. baumannii YQ4; details: COG1410 combined with polymyxin B
Description: The checkerboard method was performed to determine the fractional inhibitory concentration (FIC) index between COG1410 and other antimicrobials. Two-fold serial dilutions of antimicrobials and COG1410 were conducted and mixed in the 96-well plate. […] The experiments were conducted twice independently.

Molecule	MIC L. salivarius [1]	MIC P. gingivalis [2]	MIC E. coli [3]	further results
CC(=O)N[C@@H](CC(C)C)C(=O)N[C@@H](CC(C)C)C(=O)N[C@@H](CCCNC(=N)N)C(=O)N[C@@H](CCCCN)C(=O)NC(C)(C)C(=O)N[C@@H](CC(C)C)C(=O)N[C@@H](CCCCN)C(=O)N[C@@H](CCCNC(=N)N)C(=O)N[C@@H](CC(C)C)C(=O)NC(C)(C)C(=O)N[C@@H](CO)C(=O)N[C@@H](C)C(N)=O [SEQ ID NO: 4, Acetyl-LLRK-aib-LKRL-aib-SA-CONH2] (Ac-LLRK[Aib]LKRL[Aib]SA-NH2)	8 µg/mL (≈ 5.68 µM)	32 µg/mL (≈ 22.7 µM)	8 µg/mL (≈ 5.68 µM)	
CC(=O)N[C@H](C)C(=O)N[C@H](CO)C(=O)NC(C)(C)C(=O)N[C@H](CC(C)C)C(=O)N[C@H](CCCNC(=N)N)C(=O)N[C@H](CCCCN)C(=O)N[C@H](CC(C)C)C(=O)NC(C)(C)C(=O)N[C@H](CCCCN)C(=O)N[C@H](CCCNC(=N)N)C(=O)N[C@H](CC(C)C)C(=O)N[C@H](CC(C)C)C(N)=O [SEQ ID NO: 6, Acetyl-as-aib-lrkl-aib-krll-amide] (Ac-[dA][dS][Aib][dL][dR][dK][dL][Aib][dK][dR][dL][dL]-NH2)	8 µg/mL (≈ 5.68 µM)	8 µg/mL (≈ 5.68 µM)	8 µg/mL (≈ 5.68 µM)	
SAAP-148				LC99.9 ([4]; 50% pooled plasma): 12.8 UM; LC99.9 ([4]; PBS): 1.6 µM
CC(C)C[C@H](NC(=O)[C@H](CC(C)C)NC(=O)[C@H](CCCNC(=N)N)NC(=O)[C@H](CCCCN)NC(=O)C(C)(C)NC(=O)[C@H](CC(C)C)NC(=O)[C@H](CCCCN)NC(=O)[C@H](CCCNC(=N)N)NC(=O)[C@H](CC(C)C)NC(=O)C(C)(C)NC(=O)[C@H](CO)NC(=O)[C@H](C)NC(=O)c1ccccn1)C(N)=O [SEQ ID NO: 2, Picolinyl-AS-aib-LRKL-aib-KRLL-amide] (Picolinoyl-AS[Aib]LRKL[Aib]KRLL-NH2)	8 µg/mL (≈ 5.44 µM)	2 to 32 µg/mL	32 µg/mL (≈ 21.7 µM)	
CC(=O)N[C@@H](CC(C)C)C(=O)N[C@@H](CCCNC(=N)N)C(=O)N[C@H](C(=O)N[C@@H](CCCNC(=N)N)C(=O)N[C@@H](CC(C)C)C(=O)N[C@@H](C)C(=O)N[C@@H](CO)C(=O)NC(C)(C)C(=O)N[C@@H](CC(C)C)C(=O)N[C@@H](CCCCN)C(=O)N[C@@H](CCCCN)C(=O)N[C@@H](CC(C)C)C(=O)NC(C)(C)C(=O)N[C@@H](CCCCN)C(=O)N[C@@H](CCCNC(=N)N)C(=O)N[C@@H](CC(C)C)C(=O)N[C@@H](CC(C)C)C(N)=O)C(C)C [SEQ ID NO: 9, Acetyl-LRVRLAS-aib-LKKL-aib-KRLL-Amide] (Ac-LRVRLAS[Aib]LKKL[Aib]KRLL-NH2)	4 µg/mL (≈ 1.98 µM)	8 µg/mL (≈ 3.96 µM)	4 µg/mL (≈ 1.98 µM)	
CC(=O)N[C@@H](CC(C)C)C(=O)N[C@@H](CCCNC(=N)N)C(=O)N[C@H](C(=O)N[C@@H](CCCNC(=N)N)C(=O)N[C@@H](CS)C(=O)N[C@@H](C)C(=O)N[C@@H](CO)C(=O)NC(C)(C)C(=O)N[C@@H](CC(C)C)C(=O)N[C@@H](CCCNC(=N)N)C(=O)N[C@@H](CCCCN)C(=O)N[C@@H](CC(C)C)C(=O)NC(C)(C)C(=O)N[C@@H](CCCCN)C(=O)N[C@@H](CCCNC(=N)N)C(=O)N[C@@H](CC(C)C)C(=O)N[C@@H](CC(C)C)C(N)=O)C(C)C [SEQ ID NO: 8, Acetyl-LRVRCAS-aib-LRKL-aib-KRLL-CONH2] (Ac-LRVRCAS[Aib]LRKL[Aib]KRLL-NH2)	16 µg/mL (≈ 7.86 µM)	64 µg/mL (≈ 31.4 µM)	8 µg/mL (≈ 3.93 µM)	
CC(=O)N[C@@H](CC(C)C)C(=O)N[C@@H](CC(C)C)C(=O)N[C@@H](CCCNC(=N)N)C(=O)N[C@@H](CCCCN)C(=O)NC(C)(C)C(=O)N[C@@H](CC(C)C)C(=O)N[C@@H](CCCNC(=N)N)C(=O)N[C@@H](CCCCN)C(=O)N[C@@H](CC(C)C)C(=O)NC(C)(C)C(=O)N[C@@H](CO)C(=O)N[C@@H](C)C(=O)N[C@@H](CO)C(=O)NC(C)(C)C(=O)N[C@@H](CC(C)C)C(=O)N[C@@H](CCCNC(=N)N)C(=O)N[C@@H](CCCCN)C(=O)N[C@@H](CC(C)C)C(=O)NC(C)(C)C(=O)N[C@@H](CCCCN)C(=O)N[C@@H](CCCNC(=N)N)C(=O)N[C@@H](CC(C)C)C(=O)N[C@@H](CC(C)C)C(N)=O [SEQ ID NO: 7, Acetyl-LLRK-aib-LRKL-aib-SAS-aib-LRKL-aib-KRLL-CONH2] (Ac-LLRK[Aib]LRKL[Aib]SAS[Aib]LRKL[Aib]KRLL-NH2)	8 µg/mL (≈ 2.98 µM)	16 µg/mL (≈ 5.95 µM)	8 µg/mL (≈ 2.98 µM)	
polymyxin B [reference compound]				increase of MIC [5]: 64 fold; ATP leakage [6]: released more ATP compared to untreated cells; reduction in CFU ([7]; 1×MIC): 2 log; reduction in CFU ([7]; 5×MIC): 4 logs; MIC [8]: 16 µg/mL; working concentration in the combination [9]: 1 µg/mL
CC(C)C[C@@H]1NC(=O)[C@H](CC(C)C)NC(=O)[C@H](CCCNC(=N)N)NC(=O)[C@H](CCCCN)NC(=O)C(C)(C)NC(=O)[C@H](CC(C)C)NC(=O)[C@H](CCCCN)NC(=O)[C@H](CCCNC(=N)N)NC(=O)[C@H](CC(C)C)NC(=O)[C@@H](NC(=O)[C@H](CO)NC(=O)[C@H](C)NC(=O)c2ccccn2)CSSC[C@@H](C(N)=O)NC1=O [SEQ ID NO: 3, Picolinyl-AS-C-LRKL-aib-KRLL-C-amide] (Picolinoyl-ASCLRKL[Aib]KRLLC-NH2; disulfide 3-13)				MIC P. gingivalis ([2]; anaerobic BHI broth): 2 µg/mL (≈ 1.26 µM)
CC(=O)N[C@H](CC(C)C)C(=O)N[C@H](CC(C)C)C(=O)N[C@H](CCCNC(=N)N)C(=O)N[C@H](CCCCN)C(=O)NC(C)(C)C(=O)N[C@H](CC(C)C)C(=O)N[C@H](CCCCN)C(=O)N[C@H](CCCNC(=N)N)C(=O)N[C@H](CC(C)C)C(=O)NC(C)(C)C(=O)N[C@H](CO)C(=O)N[C@H](C)C(=O)N[C@H](CC(C)C)C(=O)N[C@H](CCCNC(=N)N)C(=O)N[C@@H](C(=O)N[C@H](CCCNC(=N)N)C(=O)N[C@H](CC(C)C)C(N)=O)C(C)C [SEQ ID NO: 11, Acetyl-llrk-aib-lkrl-aib-salrvrl-amide] (Ac-[dL][dL][dR][dK][Aib][dL][dK][dR][dL][Aib][dS][dA][dL][dR][dV][dR][dL]-NH2)			4 µg/mL (≈ 1.95 µM)	MIC L. salivarius ([1]; 5% CO2, BHI broth): 16 µg/mL (≈ 7.82 µM); MIC P. gingivalis ([2]; anaerobic BHI broth): 8 µg/mL (≈ 3.91 µM)
CC(=O)N[C@H](CC(C)C)C(=O)N[C@H](CC(C)C)C(=O)N[C@H](CCCNC(=N)N)C(=O)N[C@H](CCCCN)C(=O)NC(C)(C)C(=O)N[C@H](CC(C)C)C(=O)N[C@H](CCCCN)C(=O)N[C@H](CCCCN)C(=O)N[C@H](CC(C)C)C(=O)NC(C)(C)C(=O)N[C@H](CO)C(=O)N[C@H](C)C(N)=O [SEQ ID NO: 5, Acetyl-llrk-Aib-lkkl-Aib-sa-amide] (Ac-[dL][dL][dR][dK][Aib][dL][dK][dK][dL][Aib][dS][dA]-NH2)		16 µg/mL (≈ 11.6 µM)	16 µg/mL (≈ 11.6 µM)	
CC(=O)N[C@@H](CC(C)C)C(=O)N[C@@H](CCCNC(=N)N)C(=O)N[C@H](C(=O)N[C@@H](CCCNC(=N)N)C(=O)N[C@@H](CC(C)C)C(=O)N[C@@H](C)C(=O)N[C@@H](CO)C(=O)N[C@@H](Cc1c[nH]cn1)C(=O)N[C@@H](CC(C)C)C(=O)N[C@@H](CCCNC(=N)N)C(=O)N[C@@H](CCCCN)C(=O)N[C@@H](CC(C)C)C(=O)N[C@@H](CCCNC(=N)N)C(=O)N[C@@H](CCCCN)C(=O)N[C@@H](CCCNC(=N)N)C(=O)N[C@@H](CC(C)C)C(=O)N[C@@H](CC(C)C)C(=O)N[C@@H](C)C(=O)N[C@@H](CO)C(=O)NC(C)(C)C(=O)N[C@@H](CC(C)C)C(=O)N[C@@H](CCCNC(=N)N)C(=O)N[C@@H](CCCCN)C(=O)N[C@@H](CC(C)C)C(=O)NC(C)(C)C(=O)N[C@@H](CCCCN)C(=O)N[C@@H](CCCNC(=N)N)C(=O)N[C@@H](CC(C)C)C(=O)N[C@@H](CC(C)C)C(N)=O)C(C)C [SEQ ID NO: 12, Acetyl-LRVRLASHLRKLRKRLLAS-aib-LRKL-aib-KRLL-CONH2] (Ac-LRVRLASHLRKLRKRLLAS[Aib]LRKL[Aib]KRLL-NH2)	64 µg/mL (≈ 18.2 µM)	16 µg/mL (≈ 4.55 µM)	4 µg/mL (≈ 1.14 µM)	
